The NIST ThermoML archive (doi:10.1016/j.jct.2013.11.013)
Values joined by “and” are separate entries in the source; they are usually repeats but may differ in a detail not shown here. Equal values may be shown once.

Tests used:
[1] = molar enthalpy of vaporization or sublimation; settings: 298.15 K; Crystal; Static calorimetry
[2] = Molar enthalpy of transition or fusion; settings: Crystal; DSC
[3] = Crystal; for vapor or sublimation pressure: Calculated from knudsen effusion weight loss; for Normal melting temperature: DTA

c1ccc2c(c1)Nc1ccccc1O2 [phenoxazine]
Settings	Molar enthalpy of transition or fusion [kcal/mol]	Normal melting temperature [°C]	molar enthalpy [kcal/mol]
[1]	–	–	24.26
[2]	5.14	–	–
[3]	–	157.58	–

[3]
Settings	vapor or sublimation pressure
333.18 K	9.52e-05 kPa and 9.41e-05 kPa and 9.09e-05 kPa
335.2 K	0.0001178 kPa and 0.000118 kPa and 0.0001119 kPa
337.1 K	0.0001463 kPa and 0.000143 kPa and 0.0001421 kPa
339.17 K	0.0001789 kPa and 0.0001744 kPa and 0.0001819 kPa
341.24 K	0.0002193 kPa and 0.0002141 kPa and 0.0002236 kPa
343.14 K	0.0002773 kPa and 0.0002712 kPa and 0.0002629 kPa
345.17 K	0.0003274 kPa and 0.0003216 kPa and 0.0003308 kPa
347.19 K	0.0004072 kPa and 0.0003893 kPa and 0.0004049 kPa
349.11 K	0.000488 kPa and 0.0004919 kPa and 0.0004776 kPa
351.17 K	0.000606 kPa and 0.0005906 kPa and 0.0006233 kPa
353.17 K	0.0007525 kPa and 0.000734 kPa and 0.0007159 kPa
355.1 K	0.0008813 kPa and 0.0008967 kPa and 0.0008889 kPa
357.1 K	0.001069 kPa and 0.001075 kPa and 0.001077 kPa

c1ccc2c(c1)Nc1ccccc1S2 [10H-phenothiazine]
Settings	Molar enthalpy of transition or fusion [kcal/mol]	Normal melting temperature [°C]	molar enthalpy [kcal/mol]
[1]	–	–	24.69
[2]	6.43	–	–
[3]	–	185.70	–

[3]
Settings	vapor or sublimation pressure
357.16 K	0.0001222 kPa and 0.000127 kPa and 0.0001245 kPa
359.11 K	0.000157 kPa and 0.0001593 kPa and 0.000151 kPa
361.09 K	0.0001862 kPa and 0.0001894 kPa
363.16 K	0.0002302 kPa and 0.0002289 kPa and 0.0002278 kPa
365.1 K	0.0002854 kPa and 0.0002713 kPa and 0.0002851 kPa
367.08 K	0.0003408 kPa and 0.0003366 kPa and 0.0003279 kPa
369.16 K	0.0004206 kPa and 0.0004159 kPa and 0.0004168 kPa
371.1 K	0.0005122 kPa and 0.000496 kPa and 0.000513 kPa
373.09 K	0.0006118 kPa and 0.0005996 kPa
375.14 K	0.0007352 kPa and 0.0007169 kPa and 0.0007525 kPa
377.11 K	0.0008924 kPa and 0.0008545 kPa and 0.0008994 kPa
379.1 K	0.0009984 kPa and 0.0009874 kPa and 0.001053 kPa
